Laboratory results published in ChEMBL document CHEMBL1152441, “Discovery of [18F]N-(2-(diethylamino)ethyl)-6-fluoronicotinamide: a melanoma positron emission tomography imaging radiotracer with high tumor to body contrast ratio and rapid renal clearance” (J Med Chem, 2009).

How the values were obtained:
[1] = Biodistribution in eye of mouse B16F0 cells implanted C57BL/6J mouse assessed per gram of tissue at 0.4 to 5.5 MBq, iv after 3 hrs by gamma counter; type: ADME, organism-based; conditions: in vivo
Stomach [2] = assay: Biodistribution in stomach of mouse B16F0 cells implanted C57BL/6J mouse assessed per gram of tissue at 0.4 to 5.5 MBq, iv after 3 hrs by gamma counter; type: ADME, organism-based; conditions: in vivo
Thyroid gland [3] = assay: Biodistribution in thyroid of mouse B16F0 cells implanted C57BL/6J mouse assessed per gram of tissue at 0.4 to 5.5 MBq, iv after 6 hrs by gamma counter; type: ADME, organism-based; conditions: in vivo
Bone [4] = assay: Biodistribution in bone of mouse B16F0 cells implanted C57BL/6J mouse assessed per gram of tissue at 0.4 to 5.5 MBq, iv after 1 hr by gamma counter; type: ADME, organism-based, Bone element; conditions: in vivo
Lung [5] = assay: Biodistribution in lung of mouse B16F0 cells implanted C57BL/6J mouse assessed per gram of tissue at 0.4 to 5.5 MBq, iv after 0.5 hrs by gamma counter; type: ADME, organism-based; conditions: in vivo
[6] = Biodistribution in eye of mouse B16F0 cells implanted C57BL/6J mouse assessed per gram of tissue at 0.4 to 5.5 MBq, iv after 1 hr by gamma counter; type: ADME, organism-based; conditions: in vivo
[7] = Biodistribution in tumor of mouse B16F0 cells implanted C57BL/6J mouse assessed per gram of tissue at 0.4 to 5.5 MBq, iv after 3 hrs by gamma counter; type: ADME, organism-based, Neoplasm; conditions: in vivo
[8] = Biodistribution in eye of mouse B16F0 cells implanted C57BL/6J mouse assessed per gram of tissue at 0.4 to 5.5 MBq, iv after 2 hrs by gamma counter; type: ADME, organism-based; conditions: in vivo
Spleen [9] = assay: Biodistribution in spleen of mouse B16F0 cells implanted C57BL/6J mouse assessed per gram of tissue at 0.4 to 5.5 MBq, iv after 3 hrs by gamma counter; type: ADME, organism-based; conditions: in vivo
[10] = Biodistribution in eye of mouse B16F0 cells implanted C57BL/6J mouse assessed per gram of tissue at 0.4 to 5.5 MBq, iv after 0.25 hrs by gamma counter; type: ADME, organism-based; conditions: in vivo
Thyroid gland [11] = assay: Biodistribution in thyroid of mouse B16F0 cells implanted C57BL/6J mouse assessed per gram of tissue at 0.4 to 5.5 MBq, iv after 0.25 hrs by gamma counter; type: ADME, organism-based; conditions: in vivo
Intestine [12] = assay: Biodistribution in intestine of mouse B16F0 cells implanted C57BL/6J mouse assessed per gram of tissue at 0.4 to 5.5 MBq, iv after 0.5 hrs by gamma counter; type: ADME, organism-based; conditions: in vivo
Thyroid gland [13] = assay: Biodistribution in thyroid of mouse B16F0 cells implanted C57BL/6J mouse assessed per gram of tissue at 0.4 to 5.5 MBq, iv after 3 hrs by gamma counter; type: ADME, organism-based; conditions: in vivo
Intestine [14] = assay: Biodistribution in intestine of mouse B16F0 cells implanted C57BL/6J mouse assessed per gram of tissue at 0.4 to 5.5 MBq, iv after 6 hrs by gamma counter; type: ADME, organism-based; conditions: in vivo
Intestine [15] = assay: Biodistribution in intestine of mouse B16F0 cells implanted C57BL/6J mouse assessed per gram of tissue at 0.4 to 5.5 MBq, iv after 3 hrs by gamma counter; type: ADME, organism-based; conditions: in vivo
Bone [16] = assay: Biodistribution in bone of mouse B16F0 cells implanted C57BL/6J mouse assessed per gram of tissue at 0.4 to 5.5 MBq, iv after 3 hrs by gamma counter; type: ADME, organism-based, Bone element; conditions: in vivo
Lung [17] = assay: Biodistribution in lung of mouse B16F0 cells implanted C57BL/6J mouse assessed per gram of tissue at 0.4 to 5.5 MBq, iv after 1 hr by gamma counter; type: ADME, organism-based; conditions: in vivo
[18] = Biodistribution in tumor of mouse B16F0 cells implanted C57BL/6J mouse assessed per gram of tissue at 0.4 to 5.5 MBq, iv after 0.5 hrs by gamma counter; type: ADME, organism-based, Neoplasm; conditions: in vivo
Stomach [19] = assay: Biodistribution in stomach of mouse B16F0 cells implanted C57BL/6J mouse assessed per gram of tissue at 0.4 to 5.5 MBq, iv after 2 hrs by gamma counter; type: ADME, organism-based; conditions: in vivo
Intestine [20] = assay: Biodistribution in intestine of mouse B16F0 cells implanted C57BL/6J mouse assessed per gram of tissue at 0.4 to 5.5 MBq, iv after 0.25 hrs by gamma counter; type: ADME, organism-based; conditions: in vivo
Bone [21] = assay: Biodistribution in bone of mouse B16F0 cells implanted C57BL/6J mouse assessed per gram of tissue at 0.4 to 5.5 MBq, iv after 0.5 hrs by gamma counter; type: ADME, organism-based, Bone element; conditions: in vivo
Spleen [22] = assay: Biodistribution in spleen of mouse B16F0 cells implanted C57BL/6J mouse assessed per gram of tissue at 0.4 to 5.5 MBq, iv after 0.5 hrs by gamma counter; type: ADME, organism-based; conditions: in vivo
Lung [23] = assay: Biodistribution in lung of mouse B16F0 cells implanted C57BL/6J mouse assessed per gram of tissue at 0.4 to 5.5 MBq, iv after 6 hrs by gamma counter; type: ADME, organism-based; conditions: in vivo
Spleen [24] = assay: Biodistribution in spleen of mouse B16F0 cells implanted C57BL/6J mouse assessed per gram of tissue at 0.4 to 5.5 MBq, iv after 2 hrs by gamma counter; type: ADME, organism-based; conditions: in vivo
[25] = Biodistribution in eye of mouse B16F0 cells implanted C57BL/6J mouse assessed per gram of tissue at 0.4 to 5.5 MBq, iv after 0.5 hrs by gamma counter; type: ADME, organism-based; conditions: in vivo
Spleen [26] = assay: Biodistribution in spleen of mouse B16F0 cells implanted C57BL/6J mouse assessed per gram of tissue at 0.4 to 5.5 MBq, iv after 0.25 hrs by gamma counter; type: ADME, organism-based; conditions: in vivo
Bone [27] = assay: Biodistribution in bone of mouse B16F0 cells implanted C57BL/6J mouse assessed per gram of tissue at 0.4 to 5.5 MBq, iv after 6 hrs by gamma counter; type: ADME, organism-based, Bone element; conditions: in vivo
Spleen [28] = assay: Biodistribution in spleen of mouse B16F0 cells implanted C57BL/6J mouse assessed per gram of tissue at 0.4 to 5.5 MBq, iv after 6 hrs by gamma counter; type: ADME, organism-based; conditions: in vivo
Lung [29] = assay: Biodistribution in lung of mouse B16F0 cells implanted C57BL/6J mouse assessed per gram of tissue at 0.4 to 5.5 MBq, iv after 3 hrs by gamma counter; type: ADME, organism-based; conditions: in vivo
Spleen [30] = assay: Biodistribution in spleen of mouse B16F0 cells implanted C57BL/6J mouse assessed per gram of tissue at 0.4 to 5.5 MBq, iv after 1 hr by gamma counter; type: ADME, organism-based; conditions: in vivo
Bone [31] = assay: Biodistribution in bone of mouse B16F0 cells implanted C57BL/6J mouse assessed per gram of tissue at 0.4 to 5.5 MBq, iv after 0.25 hrs by gamma counter; type: ADME, organism-based, Bone element; conditions: in vivo
Intestine [32] = assay: Biodistribution in intestine of mouse B16F0 cells implanted C57BL/6J mouse assessed per gram of tissue at 0.4 to 5.5 MBq, iv after 1 hr by gamma counter; type: ADME, organism-based; conditions: in vivo
Stomach [33] = assay: Biodistribution in stomach of mouse B16F0 cells implanted C57BL/6J mouse assessed per gram of tissue at 0.4 to 5.5 MBq, iv after 0.5 hrs by gamma counter; type: ADME, organism-based; conditions: in vivo
[34] = Biodistribution in eye of mouse B16F0 cells implanted C57BL/6J mouse assessed per gram of tissue at 0.4 to 5.5 MBq, iv after 6 hrs by gamma counter; type: ADME, organism-based; conditions: in vivo
[35] = Lipophilicity, log P at pH 7.5; type: physicochemical; conditions: buffer
Lung [36] = assay: Biodistribution in lung of mouse B16F0 cells implanted C57BL/6J mouse assessed per gram of tissue at 0.4 to 5.5 MBq, iv after 2 hrs by gamma counter; type: ADME, organism-based; conditions: in vivo

In the case of `CCN(CC)CCNC(=O)c1ccc([18F])nc1`, the Drug uptake [1] is reported as 17.3%, the Drug uptake (Stomach [2]) is reported as 0.83% and the Drug uptake (Thyroid gland [3]) is reported as 0.17%. It also gave a Drug uptake (Bone [4]) of 1.4%, a Drug uptake (Lung [5]) of 2.9% and a Drug uptake [6] of 18.8%. The Drug uptake [7] was 7.8%, the Drug uptake [8] was 17.3% and the Drug uptake (Spleen [9]) was 0.89%. The Drug uptake [10] was 14.7%, the Drug uptake (Thyroid gland [11]) was 5.5% and the Drug uptake (Intestine [12]) was 3.9%. For the same compound, the Drug uptake (Thyroid gland [13]) was 0.49%, the Drug uptake (Intestine [14]) was 0.13% and the Drug uptake (Intestine [15]) was 0.54%. For the same compound, the Drug uptake (Bone [16]) was 0.62%, the Drug uptake (Lung [17]) was 1.6% and the Drug uptake [18] was 8.6%. The Drug uptake (Stomach [19]) was 1.5%, the Drug uptake (Intestine [20]) was 5.4% and the Drug uptake (Bone [21]) was 2.1%. It also gave a Drug uptake (Spleen [22]) of 7.2%, a Drug uptake (Lung [23]) of 0.07% and a Drug uptake (Spleen [24]) of 1.8%. For the same compound, the Drug uptake [25] was 16%, the Drug uptake (Spleen [26]) was 8.6% and the Drug uptake (Bone [27]) was 0.52%. The Drug uptake (Spleen [28]) was 0.47%, the Drug uptake (Lung [29]) was 0.25% and the Drug uptake (Spleen [30]) was 2.4%. The Drug uptake (Bone [31]) was 3.5%, the Drug uptake (Intestine [32]) was 2.1% and the Drug uptake (Stomach [33]) was 6.6%. The Drug uptake [34] was 15.6%, the logD [35] was 1.1 and the Drug uptake (Lung [36]) was 0.38%.
